Assay results as given in article PMC6123711, “Conformational signatures in β-arrestin2 reveal natural biased agonism at a G-protein-coupled receptor” (Communications Biology, 2018).

B1: Spexin (peptide, UniProt Q9BT56 27-116, looked up)
Spexin: APQRLLERRNWTPQAMLYLKGAQGRRFISDQSRRKDLSDRPLPERRSPNPQLLTIPEAATILLASLQKSPEDEEKNFDQTRFLEDSLLNW
modifications: Spexin
notes: endogenous peptide ligand of Galr2 and Galr3; synthesized by AnyGen

Assays:
Format in all cases: cell-based, human
Galr2 [1] = test: SRE-Luc gene reporter assay; conditions: for Log(τ/KA), SRE-Luc: HEK293 cells, Galr2, 6 h ligand treatment, operational model (Eq. 2)
Text: (§1) Galr2 is primarily coupled to the Gαq-protein which activates the phospholipase C/protein kinase C pathway for inositol phosphate production. We measured G-protein activation in HEK293 cells transiently expressing Galr2, using the serum response element-luciferase (SRE-Luc) gene reporter assay[10],[37] and for a more specific monitoring of Gαq-protein activity we also measured total inositol phosphate production. […] However, some differences were observed between SRE-Luc activity and total inositol phosphate production in the rank order of potency of the tested ligands. […] Phosphorylation of extracellular signal-regulated protein kinases 1 and 2 (pErk1/2) is either G-protein or β-arrestin dependent. To distinguish Gαq-protein- and β-arrestin1/2-dependent Erk1/2 signaling, we examined ligand-stimulated Erk1/2 phosphorylation in three different HEK293 cell lines, wild type, Gαq/11-knockout, and β-arrestin1/2-knockout cells. All three ligands induced high levels of Erk1/2 phosphorylation dose-dependently in wild-type HEK293 cells.
(§2) Fig. 5 Galr2 agonists display different Gαq-protein-dependent signaling and pErk1/2. The ability of increasing concentrations of agonists to induce a SRE-Luc activity and b total inositol phosphate production. c Representative western blot showing ligand-induced phosphorylation of Erk1/2 from wild-type (HEK293 WT), Gαq/11-, and β-arrestin1/2-knockout HEK293 cells expressing Galr2 (original blots are presented in Supplementary Figure 4). pErk1/2 and total Erk levels were determined at 5 min after stimulation of different concentrations of three ligands. Western blot band intensities corresponding to each concentration were quantified using Image studio ^TM Software. […] Data are the mean ± s.e.m. values of two independent experiments
(§3) Quantification of bias between each pathway was performed using Galanin as a reference ligand. All incubations for the different signaling assays were performed in serum-free medium to prevent peptide degradation.
One day before transfection, cells were seeded in 48-well plates at a density of 2.5 × 10^4 cells per well. A mixture containing 75 ng SRE-Luc reporter construct, 75 ng expression plasmid, and 0.3 μl Lipofectamine 2000 (Invitrogen) was prepared and added to each well, according to the manufacturer’s instructions. The cells were then maintained in serum-free DMEM for 16–18 h before exposure to the ligands. Approximately 48 h after transfection, the cells were treated with the respective ligands for 6 h. The cells were then lysed using 100 μl lysis buffer. The luciferase activity in 50 μl cell extract was determined using a luciferase assay system, following the standard protocol for the Synergy 2 Multi-Mode Microplate Reader Biotek.

Galr2 [2] = test: Total inositol phosphate production; conditions: for Log(τ/KA), Total inositol phosphate: HEK293 cells, human Galr2, 40 min at 37 °C, operational model (Eq. 2)
Text: as §1, §2
Galr2 activation was monitored using measurement of total inositol phosphate (IP + IP2 + IP3) production in HEK293 cells expressing human Galr2. For this assay, cells were seeded in 12-well plates at a density of 2.5 × 10^5 cells per well. The next day, the cells were transiently transfected with 1 μg/well plasmid containing human Galr2, using the Lipofectamine 2000 (Invitrogen) transfection reagent. The day after transfection, the cells were incubated in M199 medium containing 1% FBS, 1% L-glutamine, 1% penicillin/streptomycin, and 1 μCi/well myo-^3H inositol for 20 h. After a 30-min incubation in buffer A (140 mM NaCl, 20 mM Hepes, 4 mM KCl, 8 mM D-glucose, 1 mM MgCl2, 1 mM CaCl2, 1 mg/ml free fatty acid bovine serum albumin, and 10 mM LiCl at pH 7.2), the cells were exposed to the agonist for 40 min at 37 °C. […] The radioactivity of the samples was measured using a TRI carb 3100TR liquid scintillation analyzer (Packard).

[3] = tested on: Galr2–β-arrestin2–clathrin complex; test: β-arrestin2–clathrin interactions (NanoBit); conditions: for Log(τ/KA), Clathrin:β-arrestin2 / formation of Galr2–β-arrestin2–clathrin complex: data at 5 min after agonist; for Log(τ/KA), Clathrin:β-arrestin2: operational model (Eq. 2); for Log(τ/KA), Clathrin:β-arrestin2 / ΔLog(τ/KA), Clathrin:β-arrestin2: mean ± s.e.m. of three experiments in triplicate; for formation of Galr2–β-arrestin2–clathrin complex: dose–response, normalized to Galanin; for ΔLog(τ/KA), Clathrin:β-arrestin2: normalized to Galanin (reference agonist), in parenthesis
Text: The interaction between β-arrestin2 and clathrin induced by the activation of Galr2 was examined using the NanoBit technology. We measured real-time association of the protein complex Galr2–β-arrestin2–clathrin. We constructed β-arrestin2 and clathrin subunit A tagged with LgBit or SmBit at the C or N termini and screened eight different plasmid combinations, out of which only one combination (β-arrestin2–LgBit:SmBit–clathrin) responded to ligand stimulation (Fig. 3, Supplementary Fig. 3). Before ligand stimulation, Galr2, β-arrestin2, and clathrin were not in close proximity and so the basal luminescence was very low. […] A time course experiment was initially performed to determine the time at which the maximal increase in luminescence occurred following agonist stimulation. All ligands except for Fmoc-dA4-dQ14 induced different fold increase in luminescence immediately after ligand treatment (Fig. 3b). […] Galanin- and Spexin-induced increases in luminescence were attenuated by pretreatment of cmpd101, a G-protein-coupled receptor kinase 2/3 (GRK2/3) inhibitor, indicating contribution of GRK2/3 in the formation of Galr2–β-arrestin2–clathrin complex (Fig. 3).
The arrows indicate the time when the cells were treated with different ligands. […] The results are expressed as mean ± s.e.m. of three experiments performed in triplicate. Each triplicate was averaged before calculating the s.e.m.
as §3
One day before transfection, cells were seeded in 96-well plates at a density of 2.5 × 10^4 cells per well. A mixture containing 35 ng β-arrestin construct containing the LgBit or SmBit, 35 ng clathrin subunit A containing one of the two domains of Nluc and 30 ng untagged receptor, and 0.2 μl Lipofectamine 2000 (Invitrogen) was prepared and added to each well. We followed the assay manufacturer’s instructions and tested eight β-arrestin-clathrin plasmid combinations. In only one plasmid combination we were able to observe luminescent signal and it was chosen for further experiments. At 24 h post transfection, medium was aspirated and replaced with 100 μl OPTIMEM at room temperature. After a 10-min incubation, 25 μl substrate (furimazine) was added and the luminescence was monitored once every minute for 10 min. Then, 10 μl ligand was added to each well and the luminescence values were recorded immediately and once every minute for 1 h (Synergy 2 Multi-Mode Microplate Reader BioTek).

[4] = mean ± s.e.m. of three experiments in triplicate
[5] = normalized to Galanin (reference agonist), in parenthesis, mean ± s.e.m. of three experiments in triplicate
[6] = HEK293 cells transiently expressing Galr2

Molecule | Log(τ/KA), SRE-Luc (Galr2 [1]; [4]) | ΔLog(τ/KA), SRE-Luc (Galr2 [1]; [5]) | Log(τ/KA), Total inositol phosphate (Galr2 [2]; [4]) | ΔLog(τ/KA), Total inositol phosphate (Galr2 [2]; [5]) | Log(τ/KA), Clathrin:β-arrestin2 [3] | formation of Galr2–β-arrestin2–clathrin complex [3] | ΔLog(τ/KA), Clathrin:β-arrestin2 [3] | efficacy in SRE-Luc assay (Galr2 [1]; [6]) | efficacy in total inositol phosphate production (Galr2 [2]; [6])
Galanin [reference compound] | 4.80±0.007 | 0.00 ± 0.007 | 4.20 ± 0.03 | 0.00 ± 0.02 | 8.00 ± 0.18 | highest response | 0.00 ± 0.20 |  | 
B1 | 4.95±0.04 |  | 4.40 ± 0.03 |  | 6.22 ± 0.10 | lower potency and efficacy than Galanin | −1.80 ± 0.10 | substantially higher efficacy | substantially higher efficacy
